In ChEMBL document CHEMBL1127541, “3,4-Dihydro-3-amino-2H-1-benzopyran derivatives as 5-HT1A receptor ligands and potential anxiolytic agents. 1. Synthesis and structure--activity relationship studies” (J Med Chem, 1994):

How the values were obtained:
[1] = molecular target: D(1A) dopamine receptor (Bos taurus, UniProt Q95136); experiment: Binding affinity towards dopamine receptor D1 in calf striatum; assay type: tissue-based
[2] = molecular target: D(2) dopamine receptor (Bos taurus, UniProt P20288); experiment: Binding affinity against D2 receptor in calf caudate nucleus
[3] = molecular target: T1, 5-hydroxytryptamine receptor 1A (Rattus norvegicus, UniProt P19327); experiment: Binding affinity against 5-hydroxytryptamine 1A (5-HT1A) receptor in rat hippocampus membranes; assay type: cell membranes, Membrane
T1 sequence (P19327 whole entry): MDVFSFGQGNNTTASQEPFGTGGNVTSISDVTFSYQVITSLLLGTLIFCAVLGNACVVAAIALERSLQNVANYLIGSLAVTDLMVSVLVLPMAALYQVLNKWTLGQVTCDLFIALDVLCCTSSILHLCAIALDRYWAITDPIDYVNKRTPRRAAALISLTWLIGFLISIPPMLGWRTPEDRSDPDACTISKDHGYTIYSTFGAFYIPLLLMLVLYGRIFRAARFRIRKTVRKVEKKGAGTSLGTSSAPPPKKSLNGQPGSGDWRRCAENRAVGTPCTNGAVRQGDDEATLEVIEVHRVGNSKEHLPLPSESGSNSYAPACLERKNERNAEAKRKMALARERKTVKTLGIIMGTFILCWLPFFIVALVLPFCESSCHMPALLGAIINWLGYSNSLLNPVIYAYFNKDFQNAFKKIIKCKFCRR

[4] = molecular target: 5-hydroxytryptamine receptor 2A (Bos taurus, UniProt Q75Z89); experiment: Binding affinity towards 5-hydroxytryptamine 2 receptor in calf frontal cortex; assay type: tissue-based
[5] = molecular target: 5-hydroxytryptamine receptor 1B (Rattus norvegicus, UniProt P28564); experiment: Binding affinity for 5-hydroxytryptamine 1B receptor in rat cortex, striatum and globus pallidus; assay type: tissue-based
[6] = molecular target: T2, Alpha-1A adrenergic receptor (Bos taurus, UniProt P18130); experiment: Binding affinity against alpha-1 adrenergic receptor in calf frontal cortex; assay type: tissue-based
T2 sequence (P18130 whole entry): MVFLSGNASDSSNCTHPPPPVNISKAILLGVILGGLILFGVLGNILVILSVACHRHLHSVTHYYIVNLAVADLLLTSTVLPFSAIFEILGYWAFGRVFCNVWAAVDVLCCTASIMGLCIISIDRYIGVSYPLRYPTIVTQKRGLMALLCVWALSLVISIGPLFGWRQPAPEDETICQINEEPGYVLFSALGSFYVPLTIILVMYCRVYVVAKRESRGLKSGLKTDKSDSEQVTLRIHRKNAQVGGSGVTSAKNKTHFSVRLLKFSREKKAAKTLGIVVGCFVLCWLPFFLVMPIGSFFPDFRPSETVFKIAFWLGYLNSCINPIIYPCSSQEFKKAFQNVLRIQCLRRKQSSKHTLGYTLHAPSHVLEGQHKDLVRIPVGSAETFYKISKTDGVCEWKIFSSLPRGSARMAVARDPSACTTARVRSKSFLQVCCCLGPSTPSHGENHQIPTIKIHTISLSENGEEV

[7] = molecular target: T3, Alpha-2A adrenergic receptor (Bos taurus, UniProt Q28838); experiment: Binding affinity against alpha-2 adrenergic receptor in calf frontal cortex; assay type: tissue-based
T3 sequence (Q28838 whole entry): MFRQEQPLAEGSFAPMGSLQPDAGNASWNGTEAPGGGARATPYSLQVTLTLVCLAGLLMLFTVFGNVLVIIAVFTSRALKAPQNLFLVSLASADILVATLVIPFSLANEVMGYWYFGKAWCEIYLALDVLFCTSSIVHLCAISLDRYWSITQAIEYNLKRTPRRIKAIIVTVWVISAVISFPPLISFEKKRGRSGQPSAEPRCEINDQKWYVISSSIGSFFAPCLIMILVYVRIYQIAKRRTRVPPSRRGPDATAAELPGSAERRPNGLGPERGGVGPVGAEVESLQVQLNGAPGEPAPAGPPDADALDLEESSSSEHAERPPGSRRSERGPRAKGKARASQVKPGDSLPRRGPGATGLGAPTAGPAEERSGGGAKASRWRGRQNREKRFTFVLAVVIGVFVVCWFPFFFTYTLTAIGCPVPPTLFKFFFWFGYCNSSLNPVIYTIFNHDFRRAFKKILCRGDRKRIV

Sequence of D(2) dopamine receptor (P20288 whole entry): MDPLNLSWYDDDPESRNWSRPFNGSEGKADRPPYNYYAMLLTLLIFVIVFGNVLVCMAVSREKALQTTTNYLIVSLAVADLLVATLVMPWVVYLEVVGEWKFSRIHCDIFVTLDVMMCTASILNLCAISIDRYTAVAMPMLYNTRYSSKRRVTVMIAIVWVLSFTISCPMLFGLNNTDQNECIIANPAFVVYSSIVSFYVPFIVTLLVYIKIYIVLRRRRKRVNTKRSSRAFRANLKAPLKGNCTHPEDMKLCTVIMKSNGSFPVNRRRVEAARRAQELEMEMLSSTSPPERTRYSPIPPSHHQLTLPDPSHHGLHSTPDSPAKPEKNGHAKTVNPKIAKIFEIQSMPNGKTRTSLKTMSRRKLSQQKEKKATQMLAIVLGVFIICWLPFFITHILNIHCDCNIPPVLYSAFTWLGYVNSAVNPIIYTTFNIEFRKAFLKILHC
Sequence of 5-hydroxytryptamine receptor 2A (Q75Z89 whole entry): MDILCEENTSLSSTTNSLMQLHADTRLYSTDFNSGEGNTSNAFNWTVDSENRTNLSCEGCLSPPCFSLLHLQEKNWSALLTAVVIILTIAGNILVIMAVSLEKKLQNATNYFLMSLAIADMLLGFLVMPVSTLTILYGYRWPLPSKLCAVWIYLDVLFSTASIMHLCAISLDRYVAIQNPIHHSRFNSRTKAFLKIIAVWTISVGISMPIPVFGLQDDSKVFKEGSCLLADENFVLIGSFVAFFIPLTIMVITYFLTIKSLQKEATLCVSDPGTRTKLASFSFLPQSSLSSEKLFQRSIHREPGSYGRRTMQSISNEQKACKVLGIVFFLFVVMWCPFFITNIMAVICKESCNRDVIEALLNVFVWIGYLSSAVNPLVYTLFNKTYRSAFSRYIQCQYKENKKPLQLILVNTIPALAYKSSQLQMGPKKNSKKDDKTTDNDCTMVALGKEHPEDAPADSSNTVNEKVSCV
Sequence of D(1A) dopamine receptor (Q95136 whole entry): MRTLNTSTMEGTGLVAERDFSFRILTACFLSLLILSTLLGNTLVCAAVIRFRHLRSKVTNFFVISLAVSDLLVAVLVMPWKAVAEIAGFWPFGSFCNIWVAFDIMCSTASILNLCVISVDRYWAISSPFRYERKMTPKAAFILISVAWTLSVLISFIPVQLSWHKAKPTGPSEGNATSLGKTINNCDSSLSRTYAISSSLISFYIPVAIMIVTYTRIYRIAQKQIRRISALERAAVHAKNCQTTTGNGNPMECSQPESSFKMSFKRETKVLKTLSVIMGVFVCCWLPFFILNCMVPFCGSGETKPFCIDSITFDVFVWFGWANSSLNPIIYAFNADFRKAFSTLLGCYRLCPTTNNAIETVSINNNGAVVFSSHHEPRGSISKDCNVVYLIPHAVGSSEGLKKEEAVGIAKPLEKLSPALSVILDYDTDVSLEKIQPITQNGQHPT
Sequence of 5-hydroxytryptamine receptor 1B (P28564 whole entry): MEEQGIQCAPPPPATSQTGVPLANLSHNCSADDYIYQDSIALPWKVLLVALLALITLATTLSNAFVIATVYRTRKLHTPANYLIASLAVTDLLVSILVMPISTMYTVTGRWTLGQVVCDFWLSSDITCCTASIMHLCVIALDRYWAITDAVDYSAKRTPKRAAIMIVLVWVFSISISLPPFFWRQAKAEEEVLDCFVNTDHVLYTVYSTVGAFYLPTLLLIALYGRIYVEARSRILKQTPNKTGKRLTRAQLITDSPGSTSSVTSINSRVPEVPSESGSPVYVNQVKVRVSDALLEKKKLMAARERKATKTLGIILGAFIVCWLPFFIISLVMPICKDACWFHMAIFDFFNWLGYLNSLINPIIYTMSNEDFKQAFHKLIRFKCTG

IC50 [1]	IC50 [2]	IC50 [3]	IC50 [4]	IC50 [5]	IC50 [6]	IC50 [7]	SMILES
20 µM	0.1 µM	0.7 nM	8 µM	9 µM	3 µM	2 µM	CCCN(CCCCNS(=O)(=O)c1ccc(C)cc1)C1COc2cccc(OC)c2C1 (single isomer, unassigned; (+))
20 µM	0.06 µM	20 nM	5 µM	20 µM	7 µM	2 µM	CCCN(CCCCNS(=O)(=O)c1ccc(C)cc1)C1COc2cccc(OC)c2C1 (single isomer, unassigned; (-))
40 µM	0.03 µM	50 nM	30 µM	0.4 µM	5 µM	2 µM	CCCN(CCCCN1C(=O)c2ccccc2C1=O)C1COc2cccc(OC)c2C1 (configuration not stated)
20 µM	0.02 µM	1 nM	4 µM	40 µM	9 µM	2 µM	CCCN(CCCON1C(=O)CC2(CCCC2)CC1=O)C1COc2cccc(OC)c2C1 (configuration not stated)
30 µM	0.01 µM	1 nM	3 µM	30 µM	8 µM	5 µM	CCCN(CCCCN1C(=O)C2CCCC2C1=O)C1COc2cccc(OC)c2C1 (single isomer, unassigned; (-))
12 µM	> 1000 µM	35 nM	7.5 µM	50 µM	1.2 µM	2.8 µM	O=C1c2ccccc2S(=O)(=O)N1CCCCN1CCN(c2ncccn2)CC1 [IPSAPIRONE]
20 µM	0.9 µM	20 nM	1 µM	20 µM	10 µM	20 µM	COc1cccc2c1CC(NCCCCN1C(=O)CC3(CCCC3)CC1=O)CO2 (configuration not stated)
> 1000 µM	10 µM	800 nM	> 100 µM	> 1000 µM	> 1000 µM	> 1000 µM	CCCN(CCN1C(=O)c2ccccc2C1=O)C1COc2cccc(OC)c2C1 (configuration not stated)
80 µM	0.04 µM	4 nM	6 µM	10 µM	6 µM	0.4 µM	CCCN(CCCCN1C(=O)CC(C)(C)CC1=O)C1COc2cccc(OC)c2C1 (configuration not stated)
40 µM	0.02 µM	2 nM	9 µM	20 µM	7 µM	5 µM	CCCN(CCCCN1C(=O)C2CCCC2C1=O)C1COc2cccc(OC)c2C1 (stereo in doubt; 9k)
60 µM	0.003 µM	1 nM	2 µM	30 µM	5 µM	4 µM	CCCN(CCCCN1CC2CCCC2C1=O)C1COc2cccc(OC)c2C1 (configuration not stated)
60 µM	0.05 µM	5 nM	10 µM	> 1000 µM	1000 µM	10 µM	CCCN(CCNS(=O)(=O)c1ccc(C)cc1)C1COc2cccc(OC)c2C1 (stereo in doubt; (-)-15b)
100 µM	0.008 µM	1 nM	4 µM	30 µM	10 µM	20 µM	CCCN(CCCCN1C(=O)CC2(CCCC2)CC1=O)C1COc2cccc(O)c2C1 (configuration not stated)
100 µM	0.03 µM	8 nM	10 µM	> 1000 µM	10 µM	4 µM	CCCN(CCCCN1CCOCC1)C1COc2cccc(OC)c2C1 (configuration not stated)
30 µM	5 µM	90 nM	0.6 µM	7 µM	1000 µM	4 µM	COc1cccc2c1CC(NCCCCN1C(=O)c3ccccc3C1=O)CO2 (configuration not stated)
50 µM	0.1 µM	8 nM	10 µM	10 µM	3 µM	5 µM	CCCN(CCCCN1C(=O)C2CCCC2C1=O)C1COc2cccc(OC)c2C1 (single isomer, unassigned; (+))
40 µM	0.004 µM	2 nM	2 µM	30 µM	7 µM	10 µM	CCCN(CCCCN1C(=O)CC2(CCCC2)CC1=O)C1COc2ccccc2C1 (configuration not stated)
10 µM	0.6 µM	1 nM	0.8 µM	20 µM	8 µM	6 µM	CCCN(CCCN1C(=O)CC2(CCCC2)CC1=O)C1COc2cccc(OC)c2C1 (configuration not stated)
50 µM	0.09 µM	1 nM	10 µM	1 µM	1 µM	40 µM	CCCN(CCCCN1C(=O)c2ccccc2S1(=O)=O)C1COc2cccc(OC)c2C1 (configuration not stated)
20 µM	0.007 µM	0.4 nM	3 µM	3 µM	2 µM	4 µM	CCCN(CCCCNC(=O)c1ccc(F)cc1)C1COc2cccc(OC)c2C1 (configuration not stated)
100 µM	1 µM	300 nM	> 1000 µM	> 1000 µM	70 µM	1000 µM	CCC[N+](C)(CCCCN1C(=O)CC2(CCCC2)CC1=O)C1COc2cccc(OC)c2C1 (configuration not stated)
30 µM	0.1 µM	5 nM	6 µM	1 µM	3 µM	5 µM	CCCN(CCCCn1c(=O)oc2cccnc21)C1COc2cccc(OC)c2C1 (configuration not stated)
100 µM	0.5 µM	8 nM	> 1000 µM	> 1000 µM	100 µM	50 µM	CCCN(CCNS(=O)(=O)c1ccc(C)cc1)C1COc2cccc(OC)c2C1 (single isomer, unassigned; (+))
1000 µM	2.5 µM	7 nM	60 µM	100 µM	40 µM	3 µM	COc1cccc2c1CC(N1CCCC1)CO2 (configuration not stated)
	0.01 µM	1 nM	4 µM	1 µM	3 µM	0.1 µM	CCCN(CCCCNC(=O)c1ccccc1OC)C1COc2cccc(OC)c2C1 (configuration not stated)

SMILES	IC50 [1]	IC50 [2]	IC50 [3]	IC50 [4]	IC50 [5]	IC50 [6]	IC50 [7]
CCCN(CCC)C1COc2ccccc2C1 (configuration not stated)	> 1000 µM	0.06 µM	400 nM	80 µM	> 1000 µM	> 1000 µM	20 µM
O=C1CC2(CCCC2)CC(=O)N1CCCCN1CCN(c2ncccn2)CC1 [BUSPIRONE]	27 µM	4 µM		10 µM		16 µM	10 µM
CCCN(CCC)C1COc2cccc(OC)c2C1 (stereo in doubt; 4)	100 µM	0.05 µM	20 nM	60 µM	20 µM	80 µM	4 µM
CCCN(CCC)C1COc2cccc(OC)c2C1 (stereo in doubt; (-)-4)	> 1000 µM	0.21 µM	1 nM	4 µM	1 µM	3.5 µM	0.78 µM
CCCN(CCC)C1COc2cccc(OC)c2C1 (single isomer, unassigned; (+))	> 1000 µM	0.14 µM	2 nM	9.7 µM	0.51 µM	2.3 µM	9.1 µM
